Measured values taken from PubChem BioAssay (NCI).
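Assay format: 96-well plates, 48-hour exposure. GI50: concentration for 50% inhibition of growth. TGI marks complete inhibition of growth.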

Legend:
Experiment in all cases: NCI tumour cell line growth inhibition, 48 h
UO-31 renal = tested on: UO-31 renal
OVCAR-3 ovarian = tested on: OVCAR-3 ovarian
LOX IMVI melanoma = tested on: LOX IMVI melanoma
HOP-92 NSCLC = tested on: HOP-92 NSCLC
CAKI-1 renal = tested on: CAKI-1 renal
OVCAR-5 ovarian = tested on: OVCAR-5 ovarian
NCI-H23 lung = tested on: NCI-H23 lung
HCT-15 colon = tested on: HCT-15 colon
DU-145 prostate = tested on: DU-145 prostate
HOP-62 NSCLC = tested on: HOP-62 NSCLC

## O=C(NC12CC3CC(CC(C3)C1)C2)C(=O)c1c[nH]c2ccc(Br)cc12
UO-31 renal
  TGI: > 100 µM
OVCAR-3 ovarian
  TGI: 38.6 µM
LOX IMVI melanoma
  TGI: 18.4 µM
HOP-92 NSCLC
  TGI: 48.1 µM
CAKI-1 renal
  TGI: > 100 µM
OVCAR-5 ovarian
  TGI: > 100 µM
NCI-H23 lung
  TGI: > 100 µM
HCT-15 colon
  TGI: > 100 µM

## O=C1CCCCC/C1=C\c1cccc([N+](=O)[O-])c1
UO-31 renal
  TGI: 80.1 µM
OVCAR-3 ovarian
  TGI: > 100 µM
DU-145 prostate
  TGI: > 100 µM
HOP-62 NSCLC
  TGI: > 100 µM
CAKI-1 renal
  TGI: > 100 µM
OVCAR-5 ovarian
  TGI: > 100 µM

## CCOC(=O)C1(C#N)C2(C#N)C(N)=NC(ON=C(C)C)(ON=C(C)C)C12C#N (stereo unspecified)
UO-31 renal
  TGI: > 100 µM
LOX IMVI melanoma
  TGI: > 100 µM
DU-145 prostate
  TGI: > 100 µM
HOP-92 NSCLC
  TGI: > 100 µM
HOP-62 NSCLC
  TGI: > 100 µM
CAKI-1 renal
  TGI: > 100 µM
OVCAR-5 ovarian
  TGI: > 100 µM
NCI-H23 lung
  TGI: > 100 µM
HCT-15 colon
  TGI: > 100 µM

## COc1ccc(C2S/C(=C\c3cccc(OC)c3)C(=O)N2NC(=O)Cc2ccccc2)cc1 (stereo unspecified)
UO-31 renal
  TGI: > 100 µM
LOX IMVI melanoma
  TGI: > 100 µM
HOP-92 NSCLC
  TGI: > 100 µM
HOP-62 NSCLC
  TGI: > 100 µM
CAKI-1 renal
  TGI: > 100 µM
OVCAR-5 ovarian
  TGI: > 100 µM
NCI-H23 lung
  TGI: > 100 µM
HCT-15 colon
  TGI: > 100 µM

## COc1cccc2c1C(=O)c1c(O)c3c(c(O)c1C2=O)C[C@@](O)(C(=O)CN1CCOCC1)C[C@@H]3OC1CC(N)C(O)C(C)O1 (stereo partly specified)
UO-31 renal
  TGI: 59.6 µM
OVCAR-3 ovarian
  GI50: 10.6 µM
  TGI: 57.4 µM
LOX IMVI melanoma
  TGI: 45.3 µM
HOP-92 NSCLC
  GI50: 5.27 µM
  TGI: 33.9 µM
HOP-62 NSCLC
  TGI: 14.2 µM
CAKI-1 renal
  GI50: 2.61 µM
  TGI: > 53.8 µM
OVCAR-5 ovarian
  TGI: 57.6 µM
NCI-H23 lung
  TGI: 20.9 µM
HCT-15 colon
  TGI: 77.6 µM

## CCn1c(-c2ccc(OC)cc2)nc2c1C(=O)c1ccccc1C2=O
OVCAR-3 ovarian
  TGI: > 100 µM
DU-145 prostate
  TGI: > 100 µM
HOP-92 NSCLC
  TGI: > 100 µM
HOP-62 NSCLC
  TGI: > 100 µM
OVCAR-5 ovarian
  TGI: > 100 µM
NCI-H23 lung
  TGI: > 100 µM
HCT-15 colon
  TGI: > 100 µM

## O=C(N/N=C\c1cccs1)c1ccncc1
UO-31 renal
  TGI: > 100 µM
OVCAR-3 ovarian
  TGI: > 100 µM
HOP-92 NSCLC
  TGI: > 100 µM
HOP-62 NSCLC
  TGI: > 100 µM
CAKI-1 renal
  TGI: > 100 µM
OVCAR-5 ovarian
  TGI: > 100 µM
NCI-H23 lung
  TGI: > 100 µM
HCT-15 colon
  TGI: > 100 µM

## CCCc1n[nH]c(=O)n1N1C(=O)C=CC1=O
OVCAR-3 ovarian
  TGI: > 100 µM
DU-145 prostate
  TGI: > 100 µM
HOP-62 NSCLC
  TGI: > 100 µM
CAKI-1 renal
  TGI: > 100 µM
OVCAR-5 ovarian
  TGI: > 100 µM
NCI-H23 lung
  TGI: > 100 µM
HCT-15 colon
  TGI: > 100 µM

## CC(=O)OC12CC(C(F)(F)F)(C(F)(F)F)OC1(OC(C)=O)CC(C(F)(F)F)(C(F)(F)F)O2 (stereo unspecified)
UO-31 renal
  TGI: 13.3 µM
OVCAR-3 ovarian
  TGI: > 100 µM
LOX IMVI melanoma
  TGI: 34.9 µM
DU-145 prostate
  TGI: 70.4 µM
HOP-62 NSCLC
  TGI: > 100 µM
OVCAR-5 ovarian
  TGI: 90.6 µM
NCI-H23 lung
  TGI: 8.71 µM
HCT-15 colon
  TGI: > 100 µM

## NC(=O)COc1c(Br)cc(Br)cc1Br
UO-31 renal
  TGI: > 100 µM
OVCAR-3 ovarian
  TGI: > 100 µM
HOP-62 NSCLC
  TGI: > 100 µM
CAKI-1 renal
  TGI: > 100 µM
OVCAR-5 ovarian
  TGI: > 100 µM
NCI-H23 lung
  TGI: > 100 µM
HCT-15 colon
  TGI: > 100 µM

## O=C(/C=C/c1ccc2c(c1)OCO2)NCCc1ccco1
UO-31 renal
  TGI: > 100 µM
OVCAR-3 ovarian
  TGI: > 100 µM
LOX IMVI melanoma
  TGI: > 100 µM
DU-145 prostate
  TGI: > 100 µM
HOP-92 NSCLC
  TGI: > 100 µM
HOP-62 NSCLC
  TGI: > 100 µM
CAKI-1 renal
  TGI: > 100 µM
OVCAR-5 ovarian
  TGI: > 100 µM
NCI-H23 lung
  TGI: > 100 µM

## COc1cc(OCc2nc3cc(C(F)(F)F)ccc3nc2-c2ccccc2)cc(OC)c1OC
UO-31 renal
  TGI: > 100 µM
OVCAR-3 ovarian
  TGI: > 100 µM
LOX IMVI melanoma
  TGI: > 100 µM
DU-145 prostate
  TGI: > 100 µM
HOP-92 NSCLC
  TGI: > 100 µM
CAKI-1 renal
  TGI: > 100 µM
OVCAR-5 ovarian
  TGI: > 100 µM
NCI-H23 lung
  TGI: > 100 µM
HCT-15 colon
  TGI: > 100 µM

## CC(=O)NNC(=S)/N=C\c1c(O)c2ccccc2oc1=O
UO-31 renal
  TGI: > 100 µM
OVCAR-3 ovarian
  TGI: > 100 µM
LOX IMVI melanoma
  TGI: > 100 µM
DU-145 prostate
  TGI: > 100 µM
HOP-62 NSCLC
  TGI: > 100 µM
CAKI-1 renal
  TGI: > 100 µM
OVCAR-5 ovarian
  TGI: > 100 µM
NCI-H23 lung
  TGI: > 100 µM
HCT-15 colon
  TGI: > 100 µM

## C[C@@H](NC(=O)[C@@H]1C[C@]1(C)CO)c1cccc2ccccc12
UO-31 renal
  TGI: > 100 µM
OVCAR-3 ovarian
  TGI: > 100 µM
DU-145 prostate
  TGI: > 100 µM
HOP-92 NSCLC
  TGI: > 100 µM
HOP-62 NSCLC
  TGI: > 100 µM
CAKI-1 renal
  TGI: > 100 µM
OVCAR-5 ovarian
  TGI: > 100 µM
NCI-H23 lung
  TGI: > 100 µM
HCT-15 colon
  TGI: > 100 µM

## COc1ccc(N2CN(C)CSC2=S)cc1
UO-31 renal
  TGI: > 100 µM
OVCAR-3 ovarian
  TGI: 24.4 µM
LOX IMVI melanoma
  TGI: > 100 µM
DU-145 prostate
  TGI: > 100 µM
HOP-62 NSCLC
  TGI: 61.5 µM
CAKI-1 renal
  TGI: > 100 µM
OVCAR-5 ovarian
  TGI: > 100 µM
NCI-H23 lung
  TGI: > 100 µM
HCT-15 colon
  TGI: > 100 µM

## COC(=O)c1ccccc1NC(=S)NN(C)C
UO-31 renal
  TGI: > 100 µM
OVCAR-3 ovarian
  TGI: > 100 µM
LOX IMVI melanoma
  TGI: > 100 µM
DU-145 prostate
  TGI: > 100 µM
CAKI-1 renal
  TGI: > 100 µM
OVCAR-5 ovarian
  TGI: > 100 µM
NCI-H23 lung
  TGI: > 100 µM
HCT-15 colon
  TGI: > 100 µM

## COC1=CC(=O)C2C(C1=O)[C@@H]1c3ccccc3OC(C)(C)[C@H]21 (stereo partly specified)
UO-31 renal
  TGI: 38.1 µM
OVCAR-3 ovarian
  TGI: 28.3 µM
LOX IMVI melanoma
  TGI: 27.2 µM
HOP-92 NSCLC
  TGI: 35.4 µM
HOP-62 NSCLC
  TGI: > 100 µM
CAKI-1 renal
  TGI: 31 µM
OVCAR-5 ovarian
  TGI: > 100 µM
NCI-H23 lung
  TGI: 36.9 µM
HCT-15 colon
  TGI: 36.2 µM

## C[C@]12C(=O)C=CCC1=CC[C@@H]1[C@@H]2[C@H]2CC3(O)C(=O)O[C@@]4(C)[C@H]5C[C@@]6(C)[C@@H]7[C@@]2(O)[C@]1(OC[C@H]6C(=O)O5)O[C@]734 (stereo partly specified)
UO-31 renal
  TGI: > 100 µM
LOX IMVI melanoma
  TGI: 75.5 µM
DU-145 prostate
  TGI: > 100 µM
HOP-92 NSCLC
  TGI: > 100 µM
CAKI-1 renal
  TGI: > 100 µM
OVCAR-5 ovarian
  TGI: > 100 µM
NCI-H23 lung
  TGI: 54.6 µM
HCT-15 colon
  TGI: > 100 µM

## N#C/C=c1/c2ccccc2n2nc3ccccc3c12
UO-31 renal
  TGI: > 100 µM
OVCAR-3 ovarian
  TGI: > 100 µM
LOX IMVI melanoma
  TGI: > 100 µM
DU-145 prostate
  TGI: > 100 µM
HOP-62 NSCLC
  TGI: 44.4 µM
CAKI-1 renal
  TGI: > 100 µM
OVCAR-5 ovarian
  TGI: > 100 µM
NCI-H23 lung
  TGI: 59.2 µM
HCT-15 colon
  TGI: > 100 µM

## COCCOC(C)C(=O)C(O)S(=O)(=O)O (stereo unspecified)
UO-31 renal
  TGI: > 100 µM
OVCAR-3 ovarian
  TGI: > 100 µM
DU-145 prostate
  TGI: > 100 µM
HOP-92 NSCLC
  TGI: > 100 µM
HOP-62 NSCLC
  TGI: > 100 µM
OVCAR-5 ovarian
  TGI: > 100 µM
NCI-H23 lung
  TGI: > 100 µM
HCT-15 colon
  TGI: > 100 µM

## Clc1ccc2nc3n[nH]c(Cl)c3nc2c1
UO-31 renal
  TGI: 68.2 µM
OVCAR-3 ovarian
  TGI: > 100 µM
DU-145 prostate
  TGI: > 100 µM
HOP-62 NSCLC
  TGI: > 100 µM
CAKI-1 renal
  TGI: > 100 µM
OVCAR-5 ovarian
  TGI: > 100 µM
NCI-H23 lung
  TGI: > 100 µM
HCT-15 colon
  TGI: > 100 µM

## Brc1c2nc3ccccc3nc2n2ccc3ccccc3c12
UO-31 renal
  TGI: > 100 µM
OVCAR-3 ovarian
  TGI: > 100 µM
LOX IMVI melanoma
  TGI: > 100 µM
HOP-92 NSCLC
  TGI: > 100 µM
HOP-62 NSCLC
  TGI: > 100 µM
CAKI-1 renal
  TGI: > 100 µM
OVCAR-5 ovarian
  TGI: > 100 µM
NCI-H23 lung
  TGI: > 100 µM
HCT-15 colon
  TGI: > 100 µM

## N=S(=O)(c1ccccc1)c1ccccc1
UO-31 renal
  TGI: > 100 µM
OVCAR-3 ovarian
  TGI: > 100 µM
LOX IMVI melanoma
  TGI: > 100 µM
HOP-62 NSCLC
  TGI: > 100 µM
CAKI-1 renal
  TGI: > 100 µM
OVCAR-5 ovarian
  TGI: > 100 µM
NCI-H23 lung
  TGI: > 100 µM
